Experimental data as given in paper PMC3096782 (Journal of medicinal chemistry, 2011).
“Also recorded” adds a separate entry of the source.

Assays:
human NK1 receptor = human NK1 receptor (Homo sapiens, UniProt P25103); assay type: cell-based; conditions: shift of the dose-response curve of SP, aequorin luminescence, CHO-NK1 cells
[1] = acute pain models; chronic trials; cited from earlier work
[2] = cited from earlier work

Chain of human NK1 receptor (P25103 whole entry): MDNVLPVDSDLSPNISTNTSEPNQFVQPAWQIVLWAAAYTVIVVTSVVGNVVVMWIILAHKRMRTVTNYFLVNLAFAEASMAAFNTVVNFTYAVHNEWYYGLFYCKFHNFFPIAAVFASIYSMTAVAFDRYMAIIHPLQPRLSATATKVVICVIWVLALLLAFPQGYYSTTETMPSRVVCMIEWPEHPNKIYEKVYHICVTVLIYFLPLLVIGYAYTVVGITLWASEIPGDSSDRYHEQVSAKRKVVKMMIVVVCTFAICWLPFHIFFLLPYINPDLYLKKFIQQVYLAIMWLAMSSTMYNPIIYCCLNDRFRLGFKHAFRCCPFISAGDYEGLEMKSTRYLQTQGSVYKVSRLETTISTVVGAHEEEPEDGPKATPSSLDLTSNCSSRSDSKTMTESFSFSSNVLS

| Molecule | NK1R antagonism (in words) (human NK1 receptor) | Antinociception and opioid-induced tolerance (in words) [1] | Attenuation of neuropathic pain (in words) [2] |
| --- | --- | --- | --- |
| CC(=O)N1Cc2[nH]c3ccccc3c2C[C@H]1C(=O)N(C)Cc1cc(C(F)(F)F)cc(C(F)(F)F)c1 [32a] | did not show any antagonist properties | – | – |
| CC(=O)N[C@H]1Cc2ccccc2CN(CC(=O)NCc2cc(C(F)(F)F)cc(C(F)(F)F)c2)C1=O [compound 19, Ac-(S)-Aba-Gly-NH-3′,5′-(CF3)2-Bn] | able to counteract the effect of SP; also recorded: moderate | – | – |
| H-Tyr-D-Ala-Gly-Phe-Met-Pro-Leu-Trp-O-3′,5′-Bn(CF3)2 [compound 7] | – | enhanced antinociception in acute pain models and prevention of opioid-induced tolerance in chronic trials | potently attenuate neuropathic pain without producing opioid-induced tolerance |
| CC(=O)N[C@H]1Cc2c([nH]c3ccccc23)CN(CC(=O)N(C)Cc2cc(C(F)(F)F)cc(C(F)(F)F)c2)C1=O [28a] | did not show any antagonist properties | – | – |
| CC(=O)N1Cc2ccccc2C[C@H]1C(=O)N(C)Cc1cc(C(F)(F)F)cc(C(F)(F)F)c1 [compound 23, Ac-Tic-NMe-3′,5′-(CF3)2-Bn] | able to counteract the effect of SP and good | – | – |
| H-Tyr-D-Ala-Gly-Phe-Met-Pro-Leu-Trp-NH-3′,5′-Bn(CF3)2 [compound 6] | – | enhanced antinociception in acute pain models and prevention of opioid-induced tolerance in chronic trials | potently attenuate neuropathic pain without producing opioid-induced tolerance |
| CC(=O)N[C@H]1Cc2ccccc2CN(CC(=O)N(C)Cc2cc(C(F)(F)F)cc(C(F)(F)F)c2)C1=O [compound 20, Ac-(S)-Aba-Gly-NMe-3′,5′-(CF3)2-Bn] | able to counteract the effect of SP and good | – | – |
| CC(=O)N1Cc2ccccc2C[C@H]1C(=O)NCc1cc(C(F)(F)F)cc(C(F)(F)F)c1 [compound 22] | lack of antagonism | – | – |
| CC(=O)N[C@H]1Cc2c([nH]c3ccccc23)CN(Cc2cc(C(F)(F)F)cc(C(F)(F)F)c2)C1=O [compound 30] | did not show any antagonist properties | – | – |
